“And” between values parts separate entries of the source, which are not always exact repeats. Equal entries are not always repeated.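 A five-concentration, 48-hour dose response in 96-well plates underlies each endpoint, interpolated linearly between surrounding concentrations. GI50 is the concentration that inhibits growth by half. At the TGI there is no net growth.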
Key:
Assay in all cases: DTP human tumour cell line panel, 48 h
[1] = test system: MCF7 breast
[2] = test system: SK-OV-3 ovarian
[3] = test system: MDA-MB-231 breast
[4] = test system: COLO 205 colon
[5] = test system: HOP-62 NSCLC
[6] = test system: SN12C renal
[7] = test system: SW-620 colon
[8] = test system: PC-3 prostate
[9] = test system: A549 NSCLC
[10] = test system: A498 renal

CCC(/C=C/c1ccccc1)=N\Nc1ccc(Cl)c(Cl)c1
TGI [1]: > 100 µM | TGI [2]: > 100 µM | TGI [3]: 55.7 µM | TGI [4]: > 100 µM | TGI [5]: > 100 µM | TGI [6]: 74.8 µM | TGI [7]: > 100 µM | TGI [8]: > 100 µM | TGI [9]: > 100 µM

Nc1c(C(=O)Nc2ccccc2)sc2nc3c(cc12)CN(Cc1ccccc1)CC3
GI50 [1]: 12.1 µM | TGI [1]: > 100 µM | GI50 [2]: 3.53 µM | TGI [2]: > 100 µM | GI50 [3]: 5.81 µM | TGI [3]: > 100 µM | GI50 [4]: 24 µM | TGI [4]: > 100 µM | GI50 [5]: 4.11 µM | TGI [5]: 33.3 µM | GI50 [6]: 65.7 µM | TGI [6]: > 100 µM | GI50 [7]: 20.8 µM | TGI [7]: > 100 µM | GI50 [8]: 27.1 µM | TGI [8]: > 100 µM | GI50 [9]: 13.9 µM | TGI [9]: > 100 µM

CC#CC1C(OC(=O)c2ccccc2)CCCC1(CI)N=[N+]=[N-] (stereo unspecified)
TGI [2]: > 100 µM | TGI [10]: > 100 µM | TGI [4]: > 100 µM | TGI [5]: > 100 µM | TGI [6]: > 100 µM | TGI [7]: > 100 µM | TGI [9]: > 100 µM

C=CC1C(OC2OC(CO)C(O)C(O)C2O)OC=C(C(=O)OC)C1CC=O (stereo unspecified)
TGI [2]: > 100 µM | TGI [10]: > 100 µM | TGI [4]: > 100 µM | TGI [5]: > 100 µM | TGI [6]: > 100 µM | TGI [7]: > 100 µM | TGI [9]: > 100 µM

N#Cc1cc([N+](=O)[O-])ccc1NC(=O)/C(=N/N)C(C(=O)c1ccc(Cl)c(Cl)c1)C1OC(=O)c2ccccc21 (stereo unspecified)
TGI [2]: > 100 µM | TGI [10]: > 100 µM | TGI [4]: > 100 µM | TGI [5]: > 100 µM | TGI [6]: > 100 µM | TGI [7]: > 100 µM | TGI [9]: > 100 µM

CN(C)c1ccc(C(=C2C=CC(=[N+](C)C)C=C2)c2ccc(N(C)C)cc2)cc1
GI50 [2]: 0.268 µM | TGI [2]: 0.86 µM and 0.718 µM | GI50 [3]: 0.246 µM | TGI [3]: 1.26 µM | GI50 [10]: 0.145 µM | TGI [10]: 0.622 µM | GI50 [4]: 0.0974 µM | TGI [4]: 0.447 µM and 0.751 µM | GI50 [5]: 0.0447 µM | TGI [5]: 1.11 µM and 2.43 µM | GI50 [6]: 0.04 µM | TGI [6]: 1.43 µM and 0.902 µM | GI50 [7]: 0.0693 µM | TGI [7]: 1.23 µM | GI50 [8]: 0.178 µM | TGI [8]: 0.963 µM | TGI [9]: 1.2 µM and 2.48 µM

CC(=O)Nc1ccc(/C=C/C(=O)c2sc(-c3nc(C)c(C(=O)/C=C/c4ccc(NC(C)=O)cc4)s3)nc2C)cc1
TGI [2]: > 100 µM | TGI [4]: > 100 µM | TGI [5]: > 100 µM | TGI [6]: > 100 µM | TGI [7]: > 100 µM | TGI [9]: > 100 µM

COC(=O)C1=C(O)c2cc3c(cc2[C@H](c2cc(OC)c(OC)c(OC)c2)C1C(=O)OC)OCO3 (stereo partly specified)
TGI [2]: > 100 µM | TGI [10]: > 100 µM | TGI [4]: 45.7 µM | TGI [5]: > 100 µM | TGI [6]: 88 µM | TGI [7]: > 100 µM | TGI [9]: > 100 µM

Cc1c(Cl)cccc1NC1=C(Cl)C(=O)N(Cc2ccccc2)C1=O
GI50 [1]: 25.3 µM | TGI [1]: 59 µM | GI50 [2]: 14.7 µM | TGI [2]: 30.2 µM | GI50 [10]: 11.7 µM | TGI [10]: 24.8 µM | GI50 [4]: 22.1 µM | TGI [4]: 57.2 µM | GI50 [5]: 7.65 µM | TGI [5]: 20.4 µM | GI50 [6]: 11.4 µM | TGI [6]: 24.1 µM | GI50 [8]: 4.85 µM | TGI [8]: 19 µM | GI50 [9]: 12 µM | TGI [9]: 29.6 µM

CCOC(=O)C1=C(Nc2cccc3ccccc23)OC/C1=N\NC(=O)c1ccccc1O
TGI [2]: > 100 µM | TGI [10]: 70.6 µM | TGI [4]: 29.3 µM | TGI [5]: > 100 µM | TGI [6]: > 88 µM | TGI [7]: > 100 µM | TGI [9]: > 100 µM

COC(=O)C1=C(C(=O)OC)SC(=C(N=Nc2ccccc2)c2ccccc2)S1
TGI [2]: > 100 µM | TGI [10]: > 100 µM | TGI [4]: > 100 µM | TGI [5]: > 100 µM | TGI [6]: > 100 µM | TGI [7]: > 100 µM | TGI [9]: > 100 µM

O=c1[nH]c(-c2ccc(-c3nc4cc([N+](=O)[O-])ccc4c(=O)[nH]3)cc2)nc2cc([N+](=O)[O-])ccc12
TGI [2]: > 100 µM | TGI [10]: 31.3 µM | TGI [4]: > 100 µM | TGI [5]: > 100 µM | TGI [6]: > 100 µM | TGI [7]: > 100 µM | TGI [9]: > 100 µM

C/C=C/[C@@H]1OC(=O)C2=C[C@@H](O)[C@@H](/C=C/C)O[C@H]21
GI50 [1]: 14.4 µM | TGI [1]: > 100 µM | GI50 [2]: 20.5 µM | TGI [2]: 36.6 µM | GI50 [3]: 12.9 µM | TGI [3]: 29.3 µM | GI50 [4]: 2.2 µM | TGI [4]: 6.9 µM | GI50 [5]: 20 µM | TGI [5]: 36.2 µM | GI50 [6]: 3.76 µM | TGI [6]: 12.6 µM | GI50 [7]: 0.989 µM | TGI [7]: 3.13 µM | GI50 [8]: 13.9 µM | TGI [8]: 28.2 µM | GI50 [9]: 15.8 µM | TGI [9]: 34 µM

O=C1NC2C=CN(Cc3ccccc3)C=C2C(=O)N2CCCC12 (stereo unspecified)
TGI [2]: > 100 µM | TGI [10]: > 100 µM | TGI [4]: > 100 µM | TGI [5]: > 100 µM | TGI [6]: > 100 µM | TGI [7]: > 100 µM | TGI [9]: > 100 µM

CCC(=O)N(O)C(C)(C)C
TGI [2]: > 100 µM | TGI [4]: > 100 µM | TGI [5]: > 100 µM | TGI [6]: > 100 µM | TGI [7]: > 100 µM | TGI [9]: > 100 µM

C/C=C/C=C/CCCCCCCCCCCCCC1(OC)C=CC(CC(=O)OC)OO1 (stereo unspecified)
TGI [2]: 33.9 µM | GI50 [4]: 1.76 µM | TGI [4]: 3.19 µM | GI50 [5]: 20 µM | TGI [5]: 41.6 µM | TGI [6]: 26.3 µM | GI50 [7]: 1.99 µM | TGI [7]: 4.34 µM | GI50 [9]: 5.57 µM | TGI [9]: 19.7 µM

From PubChem BioAssay (NCI)
